The values below come from article PMC6934184, “Selective DNA-PKcs inhibition extends the therapeutic index of localized radiotherapy and chemotherapy” (The Journal of Clinical Investigation, 2019).

This test addresses T1, CLK3 (Homo sapiens, UniProt P49761).
T1 construct: purchased Thermo Fisher Scientific (Life Technologies) SelectScreen
The test is described as follows: SelectScreen Z'LYTE. The test is classed as biochemical. In a few lines:
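SelectScreen broad panel; activity (Z'LYTE, Adapta) plus binding formats. ATP: Km app for CSF1R Z'LYTE; 10 for CAMK1 Adapta. Readout = % per kinase.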

The term inhibition denotes the drop in the measured response relative to a control, in per cent.

The structures appear in SMILES notation.

T1 sequence (P49761 whole entry): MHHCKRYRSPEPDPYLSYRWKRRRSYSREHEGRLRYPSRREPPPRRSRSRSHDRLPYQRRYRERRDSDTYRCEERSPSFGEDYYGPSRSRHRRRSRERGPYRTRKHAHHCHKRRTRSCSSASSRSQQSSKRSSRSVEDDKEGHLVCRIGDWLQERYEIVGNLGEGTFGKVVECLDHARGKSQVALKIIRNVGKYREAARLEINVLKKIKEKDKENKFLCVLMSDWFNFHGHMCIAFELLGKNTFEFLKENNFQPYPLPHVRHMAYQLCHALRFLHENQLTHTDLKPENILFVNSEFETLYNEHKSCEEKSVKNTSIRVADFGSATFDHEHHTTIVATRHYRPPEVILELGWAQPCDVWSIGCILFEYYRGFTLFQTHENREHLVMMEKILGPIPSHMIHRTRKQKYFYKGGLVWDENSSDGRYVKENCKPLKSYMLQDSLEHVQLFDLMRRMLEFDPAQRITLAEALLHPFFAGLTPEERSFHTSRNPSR

`CN(C(=O)CN1CCOCC1)c1ccc2sc3c(-c4cccc5c(=O)cc(N6CC7CCC(C6)O7)oc45)cccc3c2c1` [NU5455]: the inhibition at 1 µM is -0.5%.
